{
  "source": "paper PMC6994103",
  "about": "(PLoS Neglected Tropical Diseases, 2020)",
  "key": {"[1]": {"system": "T. cruzi epimastigotes CL Brener strain", "test": "Trypanocidal activity in epimastigotes, CL Brener strain", "type": "cell-based, Trypanosoma cruzi", "settings": "Y vs CL Brener", "protocol": "(§1) VERO cells (5 x10^4 per well) were infected with trypomastigotes (2.5 ×10^5 per well) for 4 h. After this period, the infected cells were washed twice with phosphate-buffered saline (PBS), the MEM medium was replaced, and the cells were kept in culture at 37°C, 5% CO2. In order to obtain intracellular amastigotes, the cells were lysed 4 days after infection using a cell scraper, collected, washed twice with PBS (or MEM) and counted using a hemocytometer. Trypomastigotes were obtained from infected VERO cells as previously described.\nEpimastigotes of T. cruzi were cultured as described above, in 24-wells plate at a start density of 0.5 x10^7 cells/mL in BHT medium. Parasites´ growth was evaluated at different concentrations of BZL, CV and CV structural analogues, and parasite proliferation was determined after 48 h. […] Growth was determined by counting in a Neubauer chamber and viability assays by using “Cell Titer 96 Aqueous One Solution Cell Proliferation Assay (MTS)” (Promega, Madison, WI, USA) according to the manufacturer’s instructions. Amastigotes were fixed with methanol, stained and mounted with Vectashield with DAPI (Vector Laboratories, Burlingame, CA, USA), and then the non-lysed cells were counted by using fluorescence microscopy."}, "[2]": {"system": "T. cruzi epimastigotes Dm28c strain", "test": "Trypanocidal activity in epimastigotes, Dm28c strain", "type": "cell-based, Trypanosoma cruzi", "protocol": "as §1\nEpimastigotes of T. cruzi were cultured as described above, in 24-wells plate at a start density of 0.5 x10^7 cells/mL in BHT medium. Parasites´ growth was evaluated at different concentrations of BZL, CV and CV structural analogues, and parasite proliferation was determined after 48 h. Trypanocidal activity in trypomastigotes and amastigotes was performed using 1 x10^6 cells/mL in 96-well plates and incubating at 37°C for 24 h in the presence of the corresponding drug. Growth was determined by counting in a Neubauer chamber and viability assays by using “Cell Titer 96 Aqueous One Solution Cell Proliferation Assay (MTS)” (Promega, Madison, WI, USA) according to the manufacturer’s instructions. Amastigotes were fixed with methanol, stained and mounted with Vectashield with DAPI (Vector Laboratories, Burlingame, CA, USA), and then the non-lysed cells were counted by using fluorescence microscopy."}, "[3]": {"system": "T. cruzi trypomastigotes Y strain", "test": "Synergism BZL with LTD-CPH-CFZ in trypomastigotes, Y strain (CompuSyn)", "type": "cell-based, Trypanosoma cruzi", "protocol": "Parasites´ growth was evaluated at different concentrations of BZL, CV and CV structural analogues, and parasite proliferation was determined after 48 h. […] Growth was determined by counting in a Neubauer chamber and viability assays by using “Cell Titer 96 Aqueous One Solution Cell Proliferation Assay (MTS)” (Promega, Madison, WI, USA) according to the manufacturer’s instructions. Amastigotes were fixed with methanol, stained and mounted with Vectashield with DAPI (Vector Laboratories, Burlingame, CA, USA), and then the non-lysed cells were counted by using fluorescence microscopy. Calculations were performed using CompuSyn software (http://combosyn.com) which is based on the median-effect equation [48] and its extension, the combination index."}, "[4]": {"system": "VERO cells", "test": "Toxicity assay in VERO cells (gentian violet staining)", "type": "cell-based, African green monkey", "settings": "IC50 in VERO cells / IC50 in trypomastigotes (Y strain)", "protocol": "(§2) VERO cells (African green monkey Kidney, ATCC CCL-81) were cultured in MEM medium supplemented with 10% heat inactivated FCS, 0.15% (w/v) NaHCO3, 100 U/mL penicillin and 100 U/mL streptomycin at 37°C in 5% CO2.\n(§3) The toxicity of the compounds was determined in VERO cells by the gentian violet staining assay. Briefly, the cells (1 x10^4 cells/well) were incubated in 96-well plates with the indicated compound or dimethyl sulfoxide (DMSO) as negative control and maintained at 37° C for 24 h. Then the cells were fixed for 15 min, and stained with 0.5% gentian violet. The absorbance was measured at 570 nm. The selectivity index (SI) was calculated for each CV analogue as the ratio between the IC50 obtained in mammalian cells and the IC50 in trypomastigotes. For the combined treatment, the results were presented as percentage of untreated cells."}, "[5]": {"test": "Toxicity assay in VERO cells (gentian violet staining)", "type": "cell-based, African green monkey", "settings": "African green monkey, VERO cells, 24 h, read-out: viability of the VERO cells, percentage of untreated cells", "protocol": "as §2, §3"}},
  "note": "Several values for one entry are separate records, joined by “and”; a condition that tells them apart may be missing. Identical values can stand only once.",
  "data": [
    {"molecule": "O=C(Cn1ccnc1[N+](=O)[O-])NCc1ccccc1", "note": "[Benznidazole]", "values": [
      {"measurement": "fold more sensitive Y vs CL Brener epimastigotes", "setting": "[1]", "value": 1.3, "unit": "fold"},
      {"measurement": "fold more resistant Dm28c vs CL Brener epimastigotes", "setting": "[2]; Dm28c vs CL Brener", "value": 1.2, "unit": "fold"},
      {"measurement": "fold more sensitive Y vs Dm28c epimastigotes", "setting": "[2]; Y vs Dm28c", "value": 1.6, "unit": "fold"},
      {"measurement": "DRI BZL", "setting": "[3]; BZL 0.50 µM + LTD-CPH-CFZ 3.00 µM (1/10 IC50)", "value": "3.60 ± 0.06"},
      {"measurement": "DRI BZL", "setting": "[3]; BZL 0.50 µM + LTD-CPH-CFZ 6.00 µM (1/5 IC50)", "value": "9.19 ± 1.16"},
      {"measurement": "DRI BZL", "setting": "[3]; BZL 0.50 µM + LTD-CPH-CFZ 7.50 µM (1/4 IC50)", "value": "22.88 ± 3.02"},
      {"measurement": "DRI BZL", "setting": "[3]; BZL 0.50 µM + LTD-CPH-CFZ 10.00 µM (1/3 IC50)", "value": "94.41 ± 15.96"},
      {"measurement": "DRI BZL", "setting": "[3]; BZL 1.00 µM + LTD-CPH-CFZ 3.00 µM (1/10 IC50)", "value": "5.34 ± 0.30"},
      {"measurement": "DRI BZL", "setting": "[3]; BZL 1.00 µM + LTD-CPH-CFZ 6.00 µM (1/5 IC50)", "value": "12.08 ± 1.16"},
      {"measurement": "DRI BZL", "setting": "[3]; BZL 1.00 µM + LTD-CPH-CFZ 7.50 µM (1/4 IC50), listed as BZL", "value": "27 and 27.38 ± 2.15"},
      {"measurement": "DRI BZL", "setting": "[3]; BZL 1.00 µM + LTD-CPH-CFZ 10.00 µM (1/3 IC50)", "value": "95.04 ± 0.83"},
      {"measurement": "DRI BZL", "setting": "[3]; BZL 5.00 µM + LTD-CPH-CFZ 3.00 µM (1/10 IC50)", "value": "2.88 ± 0.54"},
      {"measurement": "DRI BZL", "setting": "[3]; BZL 5.00 µM + LTD-CPH-CFZ 6.00 µM (1/5 IC50)", "value": "7.17 ± 1.62"},
      {"measurement": "DRI BZL", "setting": "[3]; BZL 5.00 µM + LTD-CPH-CFZ 7.50 µM (1/4 IC50)", "value": "14.85 ± 6.05"},
      {"measurement": "DRI BZL", "setting": "[3]; BZL 5.00 µM + LTD-CPH-CFZ 10.00 µM (1/3 IC50)", "value": "32.44 ± 3.71"},
      {"measurement": "DRI BZL", "setting": "[3]; BZL 10.00 µM + LTD-CPH-CFZ 3.00 µM (1/10 IC50)", "value": "1.46 ± 0.23"},
      {"measurement": "DRI BZL", "setting": "[3]; BZL 10.00 µM + LTD-CPH-CFZ 6.00 µM (1/5 IC50)", "value": "6.02 ± 1.15"},
      {"measurement": "DRI BZL", "setting": "[3]; BZL 10.00 µM + LTD-CPH-CFZ 7.50 µM (1/4 IC50)", "value": "33.28 ± 1.72"},
      {"measurement": "DRI BZL", "setting": "[3]; BZL 10.00 µM + LTD-CPH-CFZ 10.00 µM (1/3 IC50)", "value": "35.17 ± 4.38"},
      {"measurement": "Dose BZL alone", "setting": "[3]; same effect (Fa 0.226) as BZL 0.50 µM + LTD-CPH-CFZ 3.00 µM", "value": "1.80 ± 0.03", "unit": "µM"},
      {"measurement": "Dose BZL alone", "setting": "[3]; same effect (Fa 0.417) as BZL 0.50 µM + LTD-CPH-CFZ 6.00 µM", "value": "4.60 ± 0.58", "unit": "µM"},
      {"measurement": "Dose BZL alone", "setting": "[3]; same effect (Fa 0.452) as BZL 1.00 µM + LTD-CPH-CFZ 3.00 µM", "value": "5.34 ± 0.30", "unit": "µM"},
      {"measurement": "Dose BZL alone", "setting": "[3]; same effect (Fa 0.631) as BZL 0.50 µM + LTD-CPH-CFZ 7.50 µM", "value": "11.44 ± 1.51", "unit": "µM"},
      {"measurement": "Dose BZL alone", "setting": "[3]; same effect (Fa 0.643) as BZL 1.00 µM + LTD-CPH-CFZ 6.00 µM", "value": "12.08 ± 1.16", "unit": "µM"},
      {"measurement": "Dose BZL alone", "setting": "[3]; same effect (Fa 0.679) as BZL 5.00 µM + LTD-CPH-CFZ 3.00 µM", "value": "14.42 ± 2.70", "unit": "µM"},
      {"measurement": "Dose BZL alone", "setting": "[3]; same effect (Fa 0.702) as BZL 10.00 µM + LTD-CPH-CFZ 3.00 µM", "value": "14.56 ± 2.33", "unit": "µM"},
      {"measurement": "Dose BZL alone", "setting": "[3]; same effect (Fa 0.798) as BZL 1.00 µM + LTD-CPH-CFZ 7.50 µM", "value": "27.38 ± 2.15", "unit": "µM"},
      {"measurement": "Dose BZL alone", "setting": "[3]; same effect (Fa 0.833) as BZL 5.00 µM + LTD-CPH-CFZ 6.00 µM", "value": "35.83 ± 8.10", "unit": "µM"},
      {"measurement": "Dose BZL alone", "setting": "[3]; same effect (Fa 0.869) as BZL 0.50 µM + LTD-CPH-CFZ 10.00 µM", "value": "47.21 ± 7.98", "unit": "µM"},
      {"measurement": "Dose BZL alone", "setting": "[3]; same effect (Fa 0.893) as BZL 10.00 µM + LTD-CPH-CFZ 6.00 µM", "value": "60.21 ± 11.50", "unit": "µM"},
      {"measurement": "Dose BZL alone", "setting": "[3]; same effect (Fa 0.905) as BZL 5.00 µM + LTD-CPH-CFZ 7.50 µM", "value": "74.24 ± 30.25", "unit": "µM"},
      {"measurement": "Dose BZL alone", "setting": "[3]; same effect (Fa 0.929) as BZL 1.00 µM + LTD-CPH-CFZ 10.00 µM", "value": "95.04 ± 0.83", "unit": "µM"},
      {"measurement": "Dose BZL alone", "setting": "[3]; same effect (Fa 0.976) as BZL 5.00 µM + LTD-CPH-CFZ 10.00 µM", "value": "162.18 ± 18.57", "unit": "µM"},
      {"measurement": "Dose BZL alone", "setting": "[3]; same effect (Fa 0.988) as BZL 10.00 µM + LTD-CPH-CFZ 7.50 µM", "value": "332.83 ± 17.17", "unit": "µM"},
      {"measurement": "Dose BZL alone", "setting": "[3]; same effect (Fa 0.988) as BZL 10.00 µM + LTD-CPH-CFZ 10.00 µM", "value": "351.76 ± 43.93", "unit": "µM"},
      {"measurement": "Selectivity Index", "setting": "[4]", "value": ">67"},
      {"measurement": "viability at 24 h, 5 µM", "setting": "[5]; BZL 5.0 µM + LTD-CPH-CFZ 0 µM", "value": 96.6, "unit": "%"},
      {"measurement": "viability at 24 h, 10 µM", "setting": "[5]; BZL 10.0 µM + LTD-CPH-CFZ 0 µM", "value": 97.5, "unit": "%"},
      {"measurement": "viability at 24 h, 50 µM", "setting": "[5]; BZL 50.0 µM + LTD-CPH-CFZ 0 µM", "value": 95.7, "unit": "%"},
      {"measurement": "viability at 24 h, 100 µM", "setting": "[5]; BZL 100.0 µM + LTD-CPH-CFZ 0 µM", "value": 92.9, "unit": "%"}
    ]}
  ]
}
